The values that follow come from PubChem BioAssay (NCI).

Among the test systems are HCT-116 colon; M14 melanoma; OVCAR-3 ovarian; OVCAR-8 ovarian; SK-MEL-28 melanoma; SK-MEL-5 melanoma; SNB-19 CNS; U251 CNS; SNB-75 CNS.
Holding throughout (experiment): inhibition of tumour cell growth, NCI panel, 48 h

Molecules are shown by their SMILES. Several values for one entry are separate records, joined by “and”; a condition that tells them apart may be missing. Equal values may be shown once.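 Briefly, cells in 96-well plates were exposed to five compound concentrations for 48 h, and endpoints were estimated by linear interpolation. GI50 is the concentration that inhibits growth by half. At the TGI there is no net growth.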 A value given as a limit tells only on which side of the number the result lay.

`CC(=O)NNc1nc(C)c(C(=O)NNC(=O)C(=O)Nc2ccc(Cl)c([N+](=O)[O-])c2)s1`: the TGI with HCT-116 colon is > 100 µM; in the assay on M14 melanoma, > 100 µM; with OVCAR-3 ovarian it was 80.8 µM; in the assay on OVCAR-8 ovarian, > 100 µM; in the assay on SK-MEL-28 melanoma, > 100 µM; with SK-MEL-5 melanoma it was > 100 µM. In addition, the TGI with SNB-19 CNS and in the assay with U251 CNS was > 100 µM throughout.

In the case of `O=C1C=CC2(CCCCCCC2=O)CC1` (stereo unspecified), the TGI with HCT-116 colon, with M14 melanoma, with OVCAR-3 ovarian, with OVCAR-8 ovarian, with SK-MEL-28 melanoma and with SK-MEL-5 melanoma was > 100 µM throughout. Also, the TGI with SNB-19 CNS, in the assay with SNB-75 CNS and in the assay with U251 CNS was > 100 µM each time.

For the compound `COc1cc(/C=C/C(=O)c2cccc3ccccc23)cc(OC)c1OC`, the TGI with HCT-116 colon is 13.8 µM; in the assay on M14 melanoma, 19.1 µM; with OVCAR-3 ovarian, 25.7 µM; in the assay with OVCAR-8 ovarian, 4.58 µM; in the assay on SK-MEL-28 melanoma, 19.4 µM; in the assay with SK-MEL-5 melanoma it was 23.8 µM. For the same compound, the values for the TGI in the assay on SNB-19 CNS, in the assay with SNB-75 CNS and with U251 CNS were 27.8 µM, 23.3 µM and 18.8 µM, respectively.

In the case of `O=C(CCc1nc(=S)[nH][nH]1)Nc1cc(Cl)ccc1Cl`, the TGI in the assay on HCT-116 colon, in the assay with M14 melanoma, in the assay on OVCAR-3 ovarian, with OVCAR-8 ovarian, in the assay with SK-MEL-28 melanoma and in the assay with SK-MEL-5 melanoma was > 100 µM each time. Further, the TGI in the assay on SNB-19 CNS, in the assay on SNB-75 CNS and in the assay with U251 CNS was > 100 µM throughout.

For `NC1=NN(c2ccccc2)C(=O)C1C(=O)C(=O)Nc1ccc(Cl)cc1` (stereo unspecified), the TGI with HCT-116 colon, with M14 melanoma, with OVCAR-3 ovarian, in the assay on OVCAR-8 ovarian, in the assay with SK-MEL-28 melanoma and with SK-MEL-5 melanoma was > 100 µM throughout. Moreover, the TGI in the assay with SNB-75 CNS and in the assay with U251 CNS was > 100 µM in each case.

`O=S(=O)(C1=CC(S(=O)(=O)c2ccccc2)COC1)c1ccccc1` (stereo unspecified): the TGI in the assay with HCT-116 colon, with M14 melanoma, with OVCAR-3 ovarian, in the assay on OVCAR-8 ovarian, in the assay on SK-MEL-28 melanoma and in the assay with SNB-19 CNS was > 100 µM throughout. In addition, the TGI in the assay with SNB-75 CNS and in the assay on U251 CNS was > 100 µM throughout.

Take `Cc1ccccc1NC(=O)CC1C(=O)Nc2ccccc2S1=O` (stereo unspecified): the TGI with HCT-116 colon, in the assay on M14 melanoma, in the assay on OVCAR-3 ovarian, in the assay with OVCAR-8 ovarian, in the assay with SK-MEL-28 melanoma and with SK-MEL-5 melanoma was > 100 µM in each case. Further, the TGI is > 100 µM with SNB-19 CNS, 65.9 µM in the assay with SNB-75 CNS and > 100 µM with U251 CNS.

Regarding `O=C(NCCCCCCCCCCCCNC(=O)c1cnc2ccccc2n1)c1cnc2ccccc2n1`, the TGI in the assay with HCT-116 colon, in the assay on M14 melanoma, with OVCAR-3 ovarian, in the assay on OVCAR-8 ovarian, in the assay on SK-MEL-28 melanoma and with SK-MEL-5 melanoma was > 100 µM throughout. For the same compound, the TGI in the assay on SNB-19 CNS was 47.7 µM; in the assay with SNB-75 CNS, 49.3 µM; in the assay on U251 CNS, > 100 µM.

In the case of `C#CCN(N=O)C(=O)NC(CCCCNC(=O)OCc1ccccc1)C(=O)OCc1ccccc1` (stereo unspecified), the TGI in the assay on HCT-116 colon is > 100 µM; in the assay with M14 melanoma it was 56.6 µM; in the assay on OVCAR-3 ovarian it was > 100 µM; in the assay on OVCAR-8 ovarian, 38.9 µM; in the assay with SK-MEL-28 melanoma, 77.6 µM; in the assay with SNB-19 CNS it was > 100 µM. Further, the TGI is 97.4 µM in the assay with SNB-75 CNS and 76.8 µM in the assay on U251 CNS.

Consider `CC(=O)Nc1ccccc1-c1nc2ccccc2nc1-c1ccccc1`, for which the TGI in the assay with HCT-116 colon, in the assay with M14 melanoma, with OVCAR-3 ovarian, in the assay on OVCAR-8 ovarian, in the assay on SK-MEL-28 melanoma and in the assay with SNB-19 CNS was > 100 µM in each case. The TGI in the assay with SNB-75 CNS and in the assay on U251 CNS was > 100 µM in each case.

As to `Cc1ccc2nc(NC(=O)C(=O)C(C(=O)c3ccc4ccccc4c3)C3OC(=O)c4ccccc43)sc2c1` (stereo unspecified), the TGI was 20.8 µM in the assay with HCT-116 colon; 28.2 µM with M14 melanoma; > 100 µM with OVCAR-3 ovarian; 62.1 µM with OVCAR-8 ovarian; 19.3 µM with SK-MEL-28 melanoma; 22.6 µM with SK-MEL-5 melanoma. For the same compound, the results for the TGI with SNB-19 CNS and with U251 CNS were 26.4 µM and 15.5 µM, respectively.

As for `c1ccc2c(c1)[nH]c1cnc3c4ncccc4[nH]c3c12`, the TGI in the assay on HCT-116 colon, in the assay on M14 melanoma, in the assay with OVCAR-3 ovarian, in the assay on OVCAR-8 ovarian, in the assay with SK-MEL-28 melanoma and in the assay on SK-MEL-5 melanoma was > 100 µM throughout. The TGI with SNB-19 CNS, in the assay on SNB-75 CNS and in the assay with U251 CNS was > 100 µM each time.

For `CC(=O)OC1C[C@H]2C(OC(=O)c3ccccc3)C3C4(OC(C)=O)COC4C[C@H](OC(C)=O)[C@@]3(C)C(OC(C)=O)[C@H](OC(C)=O)C(=C1C)C2(C)C` (stereo partly specified), the TGI in the assay with HCT-116 colon, with M14 melanoma, in the assay on OVCAR-3 ovarian, with OVCAR-8 ovarian, with SK-MEL-28 melanoma and in the assay with SK-MEL-5 melanoma was > 100 µM each time. Moreover, the TGI with SNB-19 CNS was > 100 µM; with SNB-75 CNS, 45.2 µM.

For the compound `Cc1ccccc1/C=C/c1csnn1`, the TGI with HCT-116 colon is > 59.3 µM; in the assay on M14 melanoma it was > 100 µM; in the assay with OVCAR-3 ovarian it was > 100 µM; in the assay with OVCAR-8 ovarian, > 100 µM; with SK-MEL-28 melanoma, > 100 µM; with SK-MEL-5 melanoma it was > 100 µM. The TGI in the assay on SNB-19 CNS, with SNB-75 CNS and in the assay on U251 CNS was > 100 µM throughout.

`CCOC(=O)c1oc2c(OC)ccc3c2c1CCC3`: the TGI in the assay with M14 melanoma, in the assay on OVCAR-3 ovarian, with OVCAR-8 ovarian, in the assay with SK-MEL-28 melanoma, with SK-MEL-5 melanoma and with SNB-19 CNS was > 100 µM throughout. For the same compound, the TGI with SNB-75 CNS and in the assay with U251 CNS was > 100 µM each time.

As for `CCCCCCCCSC(=O)NCCCC`, the TGI was 79 µM with M14 melanoma; > 100 µM in the assay with OVCAR-3 ovarian; > 100 µM in the assay with OVCAR-8 ovarian; 88.7 µM in the assay on SK-MEL-28 melanoma; 46.6 µM with SK-MEL-5 melanoma; > 100 µM in the assay on SNB-19 CNS. Further, the TGI with SNB-75 CNS was 84.7 µM; in the assay on U251 CNS, > 100 µM.

In the case of `O=C1c2c(O)cccc2C(C(=O)CCCCCC(=O)C2c3cccc(O)c3C(=O)c3c(O)cccc32)c2cccc(O)c21`, the GI50 with HCT-116 colon was 7.61 µM; in the assay on M14 melanoma, 7.79 µM; in the assay with OVCAR-3 ovarian it was 1.73 µM; with OVCAR-8 ovarian it was 6.8 µM; with SK-MEL-28 melanoma, 7.4 µM; in the assay on SK-MEL-5 melanoma, 7.96 µM. Besides, the results for the GI50 with SNB-19 CNS, in the assay on SNB-75 CNS and in the assay with U251 CNS were 2.05 µM, 1.69 µM and 2.5 µM, respectively. Moreover, the TGI in the assay with HCT-116 colon was 25 µM and 14.9 µM; with M14 melanoma, 2.5 µM and 16.8 µM; with OVCAR-3 ovarian it was 3.19 µM and 5.98 µM; with OVCAR-8 ovarian it was 8.5 µM and 15.6 µM; in the assay with SK-MEL-28 melanoma, 4.63 µM and 14.8 µM; in the assay with SNB-19 CNS it was 3.9 µM and 6.97 µM. Further, the TGI in the assay with SNB-75 CNS is 6.15 µM and 7.22 µM; in the assay with U251 CNS, 3.11 µM and 8.21 µM.

Regarding `NC(Cc1ccccc1)C(=O)OCN1C(=O)C2C3C=CC(C2C1=O)C1C2C(=O)N(COC(=O)C(N)Cc4ccccc4)C(=O)C2C31` (stereo unspecified), the TGI with HCT-116 colon is 33.9 µM and 46.2 µM; in the assay on M14 melanoma, 35 µM and 33.9 µM; in the assay on OVCAR-3 ovarian, 87 µM and 67.7 µM; with OVCAR-8 ovarian it was 54.1 µM and 43.7 µM; in the assay with SK-MEL-28 melanoma, 44.4 µM and 36 µM; in the assay with SK-MEL-5 melanoma it was 34.4 µM and 32.9 µM. The TGI in the assay with SNB-19 CNS was > 100 µM; in the assay with SNB-75 CNS, 64.6 µM and 62.3 µM; with U251 CNS it was 39.1 µM and 34.6 µM.

`COc1ccc(C(c2ccccc2C(=O)O)c2ccc(OC)c3ccccc23)c2ccccc12`: the TGI with M14 melanoma was found to be 33 µM; in the assay on OVCAR-3 ovarian, 26.6 µM; in the assay on OVCAR-8 ovarian it was 34.8 µM; in the assay on SK-MEL-5 melanoma, 34.2 µM; in the assay on SNB-19 CNS, 25.4 µM; with U251 CNS it was 26.6 µM.

Regarding `CC1=C(C(=O)Nc2cccc(Cl)c2)C(c2ccccc2O)C(C(=O)Nc2cccc(Cl)c2)=C(C)N1`, the TGI came out at 31.7 µM in the assay with M14 melanoma; 40 µM in the assay with OVCAR-3 ovarian; 60.1 µM in the assay on OVCAR-8 ovarian; 31.9 µM in the assay with SK-MEL-28 melanoma; 31.5 µM with SK-MEL-5 melanoma; 52.1 µM in the assay on SNB-19 CNS. Moreover, the results for the TGI in the assay with SNB-75 CNS and in the assay on U251 CNS were 43 µM and 41.4 µM, respectively.

Consider `CC(=O)OCCOCn1c2ccccc2c2c3c(c4c5ccccc5n(COCCOC(C)=O)c4c21)C(=O)N(Cc1ccccc1)C3=O`, for which the TGI in the assay on HCT-116 colon, in the assay on M14 melanoma, in the assay with OVCAR-8 ovarian, with SK-MEL-28 melanoma, in the assay on SK-MEL-5 melanoma and with SNB-19 CNS was > 100 µM throughout. For the same compound, the TGI in the assay with SNB-75 CNS and with U251 CNS was > 100 µM throughout.

Consider `O=C1OC(CC(=O)c2ccc(F)cc2)C(Cl)=C1Cl` (stereo unspecified), for which the TGI in the assay on HCT-116 colon was 46.2 µM; with M14 melanoma, 56.6 µM; with OVCAR-3 ovarian it was 38.7 µM; with OVCAR-8 ovarian it was 40.2 µM; with SK-MEL-28 melanoma, > 100 µM; in the assay with SK-MEL-5 melanoma, 60.4 µM. In addition, the TGI in the assay with SNB-19 CNS was 47 µM; with U251 CNS, 34.3 µM.
